Key:
[1] = excess molar enthalpy (molar enthalpy of mixing); xn = mol fraction of the nth substance listed; settings: 101.3 kPa, Liquid, Flow calorimetry
[2] = 101.33 kPa, Liquid

COC(=O)CC(C)=O [methyl 3-oxobutanoate] + CC(C)O
excess molar enthalpy [kJ/mol], [1]
Settings	288.2 K	298.2 K	313.2 K	328.2 K
x1 = 0.1002	0.956	1.05	1.14	1.19
x1 = 0.2005	1.46	1.65	1.85	1.96
x1 = 0.2998	1.77	2.01	2.27	2.41
x1 = 0.35	1.87	2.11	2.38	2.53
x1 = 0.4004	1.93	2.2	2.47	2.65
x1 = 0.4493	1.98	2.24	2.51	2.67
x1 = 0.4998	1.99	2.24	2.5	2.65
x1 = 0.5504	1.98	2.22	2.46	2.59
x1 = 0.6008	1.94	2.17	2.37	2.48
x1 = 0.6492	1.86	2.07	2.24	2.34
x1 = 0.6991	1.75	1.93	2.06	2.13
x1 = 0.7997	1.41	1.51	1.57	1.6
x1 = 0.9002	0.81	0.86	0.859	0.881

COC(=O)CC(C)=O [methyl 3-oxobutanoate] + CCCO
excess molar enthalpy [kJ/mol], [1]
Settings	288.2 K	298.2 K	313.2 K	328.2 K
x1 = 0.0994	0.824	0.918	1.02	1.1
x1 = 0.1995	1.3	1.47	1.67	1.81
x1 = 0.2993	1.59	1.8	2.07	2.25
x1 = 0.3492	1.69	1.92	2.21	2.38
x1 = 0.3995	1.76	2	2.3	2.47
x1 = 0.45	1.81	2.04	2.34	2.51
x1 = 0.5008	1.82	2.05	2.35	2.52
x1 = 0.5498	1.81	2.04	2.31	2.45
x1 = 0.6007	1.78	1.99	2.23	2.36
x1 = 0.6495	1.72	1.91	2.12	2.23
x1 = 0.7	1.62	1.79	1.97	2.04
x1 = 0.8001	1.31	1.41	1.51	1.55
x1 = 0.9003	0.778	0.803	0.849	0.861

COC(=O)CC(C)=O [methyl 3-oxobutanoate] + CO
excess molar enthalpy [kJ/mol], [1]
Settings	288.2 K	298.2 K	313.2 K	328.2 K
x1 = 0.1004	0.533	0.567	0.619	0.664
x1 = 0.2001	0.875	0.93	1.03	1.09
x1 = 0.3	1.1	1.17	1.28	1.38
x1 = 0.3506	1.17	1.25	1.37	1.47
x1 = 0.4003	1.22	1.29	1.42	1.52
x1 = 0.4497	1.25	1.32	1.45	1.55
x1 = 0.5001	1.26	1.34	1.46	1.55
x1 = 0.551	1.25	1.31	1.45	1.53
x1 = 0.5993	1.21	1.29	1.4	1.48
x1 = 0.6492	1.16	1.22	1.32	1.39
x1 = 0.7004	1.08	1.14	1.22	1.28
x1 = 0.7993	0.847	0.878	0.929	0.973
x1 = 0.8988	0.494	0.49	0.521	0.539

COC(=O)CC(C)=O [methyl 3-oxobutanoate] + CCO
excess molar enthalpy [kJ/mol], [1]
Settings	288.2 K	298.2 K	313.2 K	328.2 K
x1 = 0.1003	0.733	0.786	0.878	0.952
x1 = 0.2002	1.16	1.27	1.44	1.55
x1 = 0.2995	1.42	1.58	1.77	1.89
x1 = 0.3494	1.51	1.67	1.89	2
x1 = 0.3995	1.57	1.74	1.97	2.1
x1 = 0.4495	1.61	1.78	2.01	2.13
x1 = 0.5008	1.62	1.79	2.01	2.13
x1 = 0.5497	1.61	1.77	1.99	2.1
x1 = 0.5995	1.57	1.73	1.93	2.02
x1 = 0.65	1.5	1.65	1.84	1.91
x1 = 0.7011	1.41	1.53	1.7	1.75
x1 = 0.7996	1.12	1.2	1.31	1.33
x1 = 0.9006	0.647	0.686	0.725	0.728

COC(=O)CC(C)=O [methyl 3-oxobutanoate]
[2]
Settings	mass density [kg/m3]
288.2 K	1081.93
298.2 K	1071.18
313.2 K	1055.01
328.2 K	1038.78
338.2 K	1027.89
348.2 K	1016.95

Source: the NIST ThermoML archive (doi:10.1021/je1006482)
